# Marks after values point to notes of the source that are not given here.
# How the values were obtained:
# [1] = test system: MDA-MB-468 human breast cancer cells; test: murine bone lytic model of human breast cancer (intratibial inoculation); conditions: 0.1 mg/kg, i.v.; for Mean X-Ray Score of Bone Lysis in Inoculated Tibiae: scale 0 (no lysis) to 4, enlarged muscle + 0.5
# [2] = test system: MDA-MB-468 human breast cancer cells; conditions: mouse, in vivo
# [3] = target: RANKL (receptor activator of NF-kappaB ligand); test: cell-based or functional assay
# [4] = MicroCT scan of inoculated tibia at termination, mean
concentration that completely blocks RANKL-induced osteoclast differentiation (RAW264.7 cells) [3],"inhibition of RANKL-induced osteoclast differentiation (RAW264.7 cells), EC50 [3]",Compound,"Survival (Number Alive/Total) ([1]; 3 times weekly for 6 weeks, end of study)",Mean X-Ray Score of Bone Lysis in Inoculated Tibiae ([1]; 6 weeks Post-Inoculation),Mean X-Ray Score of Bone Lysis in Inoculated Tibiae ([1]; 8 weeks Post-Inoculation),"Structure Model Index (SMI) [1, 4]","Total Bone Volume (TBV) [1, 4]","Trabecular Bone Volume 3 (Tb.BV) [1, 4]","Trabecular Pattern Factor (Tb.Pf) [1, 4]",adverse clinical signs [2]
,,"O=P(O)(O)C(O)(Cn1ccnc1)P(=O)(O)O [Zometa, Zoledronic Acid]",12/12,0.2 ^a,0.5 ^a,1.831 ^a,6.799 ^a mm^3,0.614 ^a mm^3,10.458 ^a mm^--1,No adverse clinical signs were observed
100 ng/mL,0.05 mg/L,hOPG-hIgG1-Fc polypeptide of SEQ ID NO. 1 (Fc fusion),,,,,,,,
